# Measured values: patent publication US7084141B2, “Inhibitors of macrophase migration inhibitory factor and methods for identifying the same” (Avanir Pharmaceuticals, priority 2001, dated 2006)
# Key:
# [1] = target: T1, MIF produced by THP-1 cells (Homo sapiens, UniProt P14174); assay: ELISA of immunoreactive MIF from LPS stimulated THP-1 cells treated with compound; assay type: cell-based
# T1 construct: a test cell may express the MIF naturally (e.g., THP-1 cells); endogenous in cells; host or cells: THP-1 cells stimulated with LPS
# T1 sequence (P14174 2-115 limits assumed): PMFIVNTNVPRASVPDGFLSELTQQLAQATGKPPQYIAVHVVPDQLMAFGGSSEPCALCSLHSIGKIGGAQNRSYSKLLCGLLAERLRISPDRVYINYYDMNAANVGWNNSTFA
# Description: Alternatively, ELISA may be preferred to detect and quantify the amount of MIF in cell supernatants. ELISA is preferred for detection in high throughput screening. Briefly, 96-well plates are coated with an anti-MIF antibody or anti-tag antibody, washed, and blocked with 2% BSA. Cell supernatant is then added to the wells. Following incubation and washing, a second antibody (e.g., to MIF) is added. The second antibody may be coupled to a label or detecting reagent, such as an enzyme or to biotin. Following further incubation, a developing reagent is added and the amount of MIF determined using an ELISA plate reader. The developing reagent is a substrate for the enzyme coupled to the second antibody (typically an anti-isotype antibody) or for the enzyme coupled to streptavidin. Suitable enzymes are well known in the art and include horseradish peroxidase, which acts upon a substrate (e.g., ABTS) resulting in a colorimetric reaction. It is recognized that rather than using a second antibody coupled to an enzyme, the anti-MIF antibody may be directly coupled to the horseradish peroxidase, or other equivalent detection reagent. If desired, cell supernatants may be concentrated to raise the detection level. Further, detection methods, such as ELISA and the like may be employed to monitor intracellular as well as extracellular levels of MIF. When intracellular levels are desired, a cell lysate is preferred. When extracellular levels are desired, media can be screened.
# In another experiment (FIG. 2), varying concentrations of five different inhibitor analogs were added to LPS stimulated THP-1 cells and allowed to incubate overnight. The following day the amount of immunoreactive MIF detected was evaluated by ELISA. Compound 7e inhibited the ability of the antibody to recognize MIF in a dose dependent fashion with an ED50 of 2 μM, similar to the response obtained with analogs compound 7b and compound 7d.
# In a further experiment (FIG. 3), the ability of compound 7e to decrease the immunoreactivity of MIF produced by THP-1 cells was determined. THP-1 cells were treated with 10 μg/ml of LPS and 10 μM of compound 7e was added at various times post-LPS stimulation and immunoreactivity monitored with an anti-MIF monoclonal. […] Thus, this experiment measures the activity of compounds or buffer alone controls on MIF detection when the compounds are initially added at various times to cell cultures and then the corresponding conditioned media samples are processed in a time dependent fashion thereafter.
# serum MIF = assay: Serum MIF after LPS/galactosamine challenge in mice (ELISA); assay type: in vivo, mouse
# Description: Doses of lipopolysacchraride (LPS) were made fresh prior to each experiment. LPS (Escherichia Coli 0111:B4, Sigma) was reconstituted by adding 0.5% TEA (1 ml USP water+[…] Triethylamine (Pierce)) to a vial of 5 mg endotoxin. Once reconstituted, the solution was incubated at 37° C. for 30 minutes. Subsequently, the solution was sonicated in a 56–60° C. bath sonicator for 30 seconds 3 times. Following sonication the mixture was vortexed for 3 minutes continuously. The stock solution of LPS was then ready for use.
# Ten 10-week-old (20±2 gram) female BALB/c mice (Charles River Laboratories, Kingston, N.Y.) were housed in a group of 5 per cage with free access to food and water and were acclimatized for at least one week prior to experimentation. On the day of experiment, mice were weighed and randomly distributed into group of 10 animals of equal mean body weight. […] Mouse serum Il-1β and TNF-α were measured by ELISA using a “mouse IL 1β immunoassay or mouse TNF-α immunoassay” kits (R&D System Minneapolis, Minn.) following manufacturer's direction. Serum MIF concentrations in mouse serum were quantified by a sandwich ELISA (ChemiKine MIF Kit, Chemicon, San Diego, Calif.). Samples were analyzed in duplicate, and results were averaged. […]
compound,measurement,setting,value
Cn1c(=O)c([N+](=O)[O-])c(N2CCN(C(=O)c3ccco3)CC2)c2ccccc21 [compound 7e],immunoreactivity of MIF with anti-MIF monoclonal,[1]; 10 μM added at various times post-LPS (10 μg/ml),immunoreactivity is rapidly lost
same,EC50,"[1]; LPS stimulated THP-1 cells, incubated overnight, read-out: ED50, inhibition of the ability of the antibody to recognize MIF (ELISA)",2000 nM
same,decrease in serum MIF,"serum MIF; 5 mg/kg LPS, four hours following treatment, p=0.0003",60%
same,level of circulating MIF,"serum MIF; 10 mg/kg LPS, 20 mg/kg i.p., p=0.05",significant decrease in the level of circulating MIF
